From US9730943B2, “Alkoxy-substituted 2,3-dihydroimidazo[1,2-C]quinazolines” (BAYER INTELLECTUAL PROPERTY GMBH, priority 2010, dated 2017)

Legend:
PI3Kβ = target: T1, PI3Kβ (Homo sapiens, UniProt P42338); assay: PI3Kβ kinase assay (HTRF based PI3K inhibition assay); type: biochemical; settings: for inhibition at 0.93 µM: 0.93 μM compound, read-out: PI3K beta average % Inhibition at 0.93 μM; for IC50: complex of human p110β and human p85α, 10 μM ATP, 10 μM PIP2, read-out: average IC50 in the PI3K beta biochemical assay; for PI3K beta average IC50/ PI3K alpha average IC50: ratio of PI3K beta IC50 to PI3K alpha IC50 (A2 and A1)
T1 construct: N-terminal His6-tagged recombinant full-length human p110β; His6 (N); purchased Millipore 14-603; host or cells: baculovirus infected Sf21 insect cells
Excerpt: Determination of % Inhibition and IC50 Values of Compounds in PI3Kβ Kinase Assay
PI3Kβ inhibitory activity of compounds of the present invention was quantified employing the HTRF based PI3K inhibition assay as described below.
(§1) As reagents for the kinase reaction itself and the quantification of the reaction product, the PI3-Kinase HTRF Assay kit from Millipore (#33-017) was used. With this kit the phosphatidylinositol 3,4,5-trisphosphate (PIP3) generated in the kinase reaction is detected by displacement of a biotinylated ligand from an energy transfer complex consisting of a Europium-labeled anti-GST monoclonal antibody, a GST-tagged PH domain, biotinylated PIP3 and Streptavidin-Allophycocyanin (APC).
(§2) For the assay 50 nL of a 80-fold concentrated solution of the test compound in DMSO was pipetted into a black low volume 384-well microtiter plate (Greiner Bio-One, Frickenhausen, Germany), 3 μl of a solution of PI3Kβ and phosphatidylinositol-4,5-bisphosphate (PIP2, 13.8 μM=>final conc. in 4 μl reaction volume=10 μM) in 1× reaction buffer (exact composition not disclosed by the vendor) were added and the mixture was incubated for 15 min at 22° C. to allow pre-binding of the test compounds to the enzyme before the start of the kinase reaction. The amount of PI3Kβ was chosen to have the enzyme reaction in the linear range and depended on the activity of the individual lot, typical concentrations in assay were in the range of 120 ng/mL. Then the kinase reaction was started by the addition of 1 μL of a solution of adenosine triphosphate (ATP, 40 μM=>final conc. in the 4 μl assay volume is 10 μM) in reaction buffer and the resulting mixture was incubated for a reaction time of 20 min at 22° C.
(§3) The reaction was stopped by the addition of 1 μL of an stop solution (containing the biotinylated PIP3 used as a tracer). Then 1 μL detection mix (containing a Europium-labeled anti-GST monoclonal antibody, a GST-tagged PH domain, and Streptavidin-Allophycocyanin) was added and resulting mixture was incubated for 3 h at 22° C. to allow the formation of complexes between the detection reagents and either the PIP3 generated in the kinase reaction, or the biotinylated PIP3 added with the stop solution. Subsequently the amount of energy transfer complex consisting of a Europium-labeled anti-GST monoclonal antibody, a GST-tagged PH domain, biotinylated PIP3 and Streptavidin-Allophycocyanin (APC) was evaluated by measurement of the resonance energy transfer from the Europium-labeled anti-GST monoclonal antibody to the Streptavidin-Allophycocyanin. Therefore, the fluorescence emissions at 620 nm and 665 nm after excitation at 350 nm were measured using a TR-FRET reader, e.g., a Pherastar (BMG Labtechnologies, Offenburg, Germany) or a Viewlux (Perkin-Elmer). The ratio of the emissions at 665 nm and at 622 nm were taken as the measure for the amount of biotinylated PIP3 bound to the GST-tagged PH domain, which is negatively correlated with the amount of PIP3 generated.

PI3Kα = target: T2, PI3Kα (Homo sapiens, UniProt P42336); assay: PI3Kα kinase assay (HTRF-based PI3K inhibition assay); type: biochemical; settings: for inhibition at 0.93 µM: 0.93 μM compound, read-out: PI3K alpha average % Inhibition at 0.93 μM; for IC50: complex of human p110α and human p85α, 10 μM ATP, 10 μM PIP2, read-out: average IC50 in the PI3K alpha biochemical assay
T2 construct: N-terminal His6-tagged recombinant full-length human p110α; His6 (N); purchased Millipore 14-602; host or cells: baculovirus infected Sf21 insect cells
Excerpt: Determination of % Inhibition and IC50 Values of Compounds in PI3Kα Kinase Assay
PI3Kα inhibitory activity of compounds of the present invention was quantified employing the HTRF-based PI3K inhibition assay as described below.
as §1
as §2, with “Germany), 3 μL of a” for “Germany), 3 μl of a”, “solution of PI3Kα and phosphatidylinositol-4,5-bisphosphate” for “solution of PI3Kβ and phosphatidylinositol-4,5-bisphosphate”, “amount of PI3Kα was chosen” for “amount of PI3Kβ was chosen”, “range of 90 ng/mL. Then” for “range of 120 ng/mL. Then”, “the 4 μL assay volume” for “the 4 μl assay volume”
as §3, with “as a tracer), then 1 μL” for “as a tracer). Then 1 μL”, “was incubated 3 h” for “was incubated for 3 h”, “stop solution. Subsequently, the amount” for “stop solution. Subsequently the amount”, “[…] was taken as” for “622 nm were taken as”, “PIP3 generated. […] Normally test compounds were tested on the same microtiter plate at 10 different concentrations in the range of 25 μM to 1.3 nM (25 μM, 8.3 μM, 2.8 μM, 0.93 μM, 0.31 μM, 103 nM, 34 nM, 11 nM, 3.8 nM and 1.3 nM, a dilution series prepared before the assay at the level of the 80-fold conc. stock solutions by serial 1:3 dilutions) in duplicate values for each concentration and […] values were calculated by a 4-parameter fit using in-house software.” for “PIP3 generated.”

T1 sequence (P42338 whole entry): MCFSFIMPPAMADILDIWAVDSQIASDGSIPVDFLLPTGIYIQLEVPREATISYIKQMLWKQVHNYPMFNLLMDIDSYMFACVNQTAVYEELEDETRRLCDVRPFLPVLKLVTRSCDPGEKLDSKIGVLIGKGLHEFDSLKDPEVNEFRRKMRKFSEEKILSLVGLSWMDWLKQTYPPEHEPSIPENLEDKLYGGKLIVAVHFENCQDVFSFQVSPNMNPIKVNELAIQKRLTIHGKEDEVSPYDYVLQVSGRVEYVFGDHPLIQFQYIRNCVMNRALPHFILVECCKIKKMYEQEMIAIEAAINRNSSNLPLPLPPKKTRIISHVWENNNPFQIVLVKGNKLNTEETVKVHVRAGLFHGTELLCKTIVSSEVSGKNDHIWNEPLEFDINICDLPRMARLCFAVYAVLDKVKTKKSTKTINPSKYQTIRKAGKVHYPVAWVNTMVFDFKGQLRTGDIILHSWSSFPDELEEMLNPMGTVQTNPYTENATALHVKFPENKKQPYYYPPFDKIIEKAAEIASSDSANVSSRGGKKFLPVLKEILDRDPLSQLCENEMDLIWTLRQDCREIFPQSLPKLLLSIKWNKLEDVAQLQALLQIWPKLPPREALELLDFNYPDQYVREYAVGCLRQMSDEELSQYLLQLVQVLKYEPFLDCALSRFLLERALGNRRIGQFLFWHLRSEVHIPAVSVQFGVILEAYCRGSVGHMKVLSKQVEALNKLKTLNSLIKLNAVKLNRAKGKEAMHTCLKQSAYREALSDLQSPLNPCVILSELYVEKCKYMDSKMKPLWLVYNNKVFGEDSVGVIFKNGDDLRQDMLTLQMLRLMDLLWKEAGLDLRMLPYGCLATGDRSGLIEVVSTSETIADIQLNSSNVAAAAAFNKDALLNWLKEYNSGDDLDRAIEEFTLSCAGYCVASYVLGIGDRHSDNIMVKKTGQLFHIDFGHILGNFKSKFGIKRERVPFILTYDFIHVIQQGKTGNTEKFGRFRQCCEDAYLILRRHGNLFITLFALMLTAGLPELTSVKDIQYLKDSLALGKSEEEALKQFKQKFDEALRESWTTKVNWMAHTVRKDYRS
T1 sequence (P27986 whole entry partner): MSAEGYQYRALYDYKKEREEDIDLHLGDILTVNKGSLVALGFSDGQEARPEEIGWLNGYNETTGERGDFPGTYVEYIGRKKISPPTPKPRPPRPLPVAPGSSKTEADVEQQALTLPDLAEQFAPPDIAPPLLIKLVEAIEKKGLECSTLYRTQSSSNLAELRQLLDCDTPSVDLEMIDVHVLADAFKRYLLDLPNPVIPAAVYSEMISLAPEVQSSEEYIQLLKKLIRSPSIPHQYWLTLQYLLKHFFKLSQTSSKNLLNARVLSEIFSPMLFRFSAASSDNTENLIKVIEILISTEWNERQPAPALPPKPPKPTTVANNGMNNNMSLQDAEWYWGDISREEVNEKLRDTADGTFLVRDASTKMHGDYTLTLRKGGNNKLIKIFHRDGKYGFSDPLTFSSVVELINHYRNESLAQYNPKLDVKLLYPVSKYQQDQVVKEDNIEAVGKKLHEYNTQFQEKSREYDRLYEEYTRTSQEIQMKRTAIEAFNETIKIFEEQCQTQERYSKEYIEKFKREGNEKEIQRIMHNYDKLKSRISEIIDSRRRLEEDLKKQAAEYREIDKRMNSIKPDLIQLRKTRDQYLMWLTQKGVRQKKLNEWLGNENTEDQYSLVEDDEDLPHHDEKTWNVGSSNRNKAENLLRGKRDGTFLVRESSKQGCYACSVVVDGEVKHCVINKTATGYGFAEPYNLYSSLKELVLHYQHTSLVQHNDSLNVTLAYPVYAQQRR
T2 sequence (P42336 whole entry): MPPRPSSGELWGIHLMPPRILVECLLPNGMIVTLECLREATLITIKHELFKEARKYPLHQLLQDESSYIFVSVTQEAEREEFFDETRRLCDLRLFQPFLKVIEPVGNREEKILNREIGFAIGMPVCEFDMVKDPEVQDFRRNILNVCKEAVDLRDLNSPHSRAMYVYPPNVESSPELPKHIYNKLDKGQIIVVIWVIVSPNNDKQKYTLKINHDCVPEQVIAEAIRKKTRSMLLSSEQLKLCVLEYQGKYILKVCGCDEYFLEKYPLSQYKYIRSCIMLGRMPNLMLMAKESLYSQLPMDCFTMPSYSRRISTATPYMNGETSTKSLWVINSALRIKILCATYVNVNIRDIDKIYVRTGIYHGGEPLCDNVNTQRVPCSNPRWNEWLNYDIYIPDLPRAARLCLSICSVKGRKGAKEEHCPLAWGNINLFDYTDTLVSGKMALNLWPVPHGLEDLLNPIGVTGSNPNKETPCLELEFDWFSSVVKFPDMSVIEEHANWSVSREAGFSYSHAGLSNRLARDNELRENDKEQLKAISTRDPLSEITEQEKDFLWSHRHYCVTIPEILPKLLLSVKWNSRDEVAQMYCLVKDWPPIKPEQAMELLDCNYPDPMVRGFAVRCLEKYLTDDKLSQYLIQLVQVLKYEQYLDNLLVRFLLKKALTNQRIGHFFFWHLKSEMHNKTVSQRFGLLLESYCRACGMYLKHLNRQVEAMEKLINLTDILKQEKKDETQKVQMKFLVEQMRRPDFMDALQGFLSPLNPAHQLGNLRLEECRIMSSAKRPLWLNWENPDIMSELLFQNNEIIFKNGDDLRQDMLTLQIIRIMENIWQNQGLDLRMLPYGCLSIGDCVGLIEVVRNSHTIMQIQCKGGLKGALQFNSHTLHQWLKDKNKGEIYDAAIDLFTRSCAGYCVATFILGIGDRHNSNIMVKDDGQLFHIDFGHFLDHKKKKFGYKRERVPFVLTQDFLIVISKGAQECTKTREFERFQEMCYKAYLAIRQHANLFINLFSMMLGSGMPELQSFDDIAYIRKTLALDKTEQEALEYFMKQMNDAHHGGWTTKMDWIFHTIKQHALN
T2 sequence (P27986 whole entry partner): as the sequence (P27986 whole entry partner) above

Compound | inhibition at 0.93 µM (PI3Kβ) | IC50 (PI3Kβ) | PI3K beta average IC50/ PI3K alpha average IC50 (PI3Kβ) | inhibition at 0.93 µM (PI3Kα) | IC50 (PI3Kα)
COc1c(OC[C@H](O)CN2CCOCC2)ccc2c1N=C(NC(=O)c1cccnc1)N1CCN=C21 [Example 2, N-(8-{[(2R)-2-hydroxy-3-(morpholin-4-yl)propyl]oxy}-7-methoxy-2,3-dihydroimidazo[1,2-c]quinazolin-5-yl)pyridine-3-carboxamide] | 94.4% | – | – | – | –
COc1c(OC[C@](C)(O)CN2C[C@@H](C)O[C@@H](C)C2)ccc2c1N=C(NC(=O)c1cccnc1)N1CCN=C21 (relative stereo) [Example 10, rel-N-[8-({(2R)-3-[(2R,6S)-2,6-Dimethylmorpholin-4-yl]-2-hydroxy-2-methylpropyl}oxy)-7-methoxy-2,3-dihydroimidazo[1,2-c]quinazolin-5-yl]pyridine-3-carboxamide] | 81.6% | > 50 nM | 8.95 | 93.2% | < 10 nM
C[C@@H]1CN(C[C@@](C)(O)COc2ccc3c(c2OCCc2ccc(F)cc2)N=C(NC(=O)c2cccnc2)N2CCN=C32)C[C@H](C)O1 (relative stereo) [Example 12, rel-N-{8-({(2R)-3-[(2R,6S)-2,6-Dimethylmorpholin-4-yl]-2-hydroxy-2-methylpropyl}oxy)-7-[2-(4-fluorophenyl)ethoxy]-2,3-dihydroimidazo[1,2-c]quinazolin-5-yl}pyridine-3-carboxamide] | 100% | > 50 nM | 3.69 | 104% | 10 to 50 nM

Second part, the compound after the results:

inhibition at 0.93 µM (PI3Kβ) | IC50 (PI3Kβ) | PI3K beta average IC50/ PI3K alpha average IC50 (PI3Kβ) | inhibition at 0.93 µM (PI3Kα) | IC50 (PI3Kα) | Compound
102% | < 10 nM | 0.63 | 98.8% | 10 to 50 nM | O=C(NC1=Nc2c(ccc(OCC(O)CN3CCOCC3)c2OCCc2ccc(F)cc2)C2=NCCN12)c1cccnc1 (stereo not shown) [Example 9, N-{7-[2-(4-Fluorophenyl)ethoxy]-8-[2-hydroxy-3-(morpholin-4-yl)propoxy]-2,3-dihydroimidazo[1,2-c]quinazolin-5-yl}pyridine-3-carboxamide]
90% | 10 to 50 nM | 2.78 | 91.5% | < 10 nM | CC(C)N(C[C@@H](O)COc1ccc2c(c1OCCc1ccc(F)cc1)N=C(NC(=O)c1cccnc1)N1CCN=C21)C(C)C [Example 7, N-(8-{[(2R)-3-(dipropan-2-ylamino)-2-hydroxypropyl]oxy}-7-[2-(4-fluorophenyl)ethoxy]-2,3-dihydroimidazo[1,2-c]quinazolin-5-yl)pyridine-3-carboxamide]
95.3% | 10 to 50 nM | 9.66 | 109% | < 10 nM | C[C@@H]1CN(C[C@@](C)(O)COc2ccc3c(c2OCCc2ccc(F)cc2)N=C(NC(=O)c2cnc(N)nc2)N2CCN=C32)C[C@H](C)O1 (relative stereo) [Example 11, rel-2-Amino-N-{8-({(2R)-3-[(2R,6S)-2,6-dimethylmorpholin-4-yl]-2-hydroxy-2-methylpropyl}oxy)-7-[2-(4-fluorophenyl)ethoxy]-2,3-dihydroimidazo[1,2-c]quinazolin-5-yl}pyrimidine-5-carboxamide]
96.7% | 10 to 50 nM | 2.28 | 99.9% | 10 to 50 nM | C[C@@H]1CN(C[C@@H](O)COc2ccc3c(c2OCCc2ccc(F)cc2)N=C(NC(=O)c2cccnc2)N2CCN=C32)C[C@H](C)O1 [Example 8, N-{8-({(2R)-3-[(2R,6S)-2,6-Dimethylmorpholin-4-yl]-2-hydroxypropyl}oxy)-7-[2-(4-fluorophenyl)ethoxy]-2,3-dihydroimidazo[1,2-c]quinazolin-5-yl}pyridine-3-carboxamide]
